Assay results taken from patent publication US9895337B2, “Compositions containing monoacetyldiacylglycerol compound as an active ingredient for preventing or treating rheumatoid arthritis” (ENZYCHEM LIFESCIENCES CORPORATION, priority 2013, dated 2018).

Assays:
STAT-1 = test: Inhibition of PMA-induced STAT-1 phosphorylation in NK-92 cells (western blot); type: cell-based, Human; details: PMA-induced (FIG. 2B)
Method: Human cell lines NK-92, U937, A549 and HepG2 (American Type Culture Collection, ATCC, Rockville, Md.) were cultured at 37° C. under 5% CO2 humid conditions. NK-92 cells were cultured in alpha-MEM media (Life Technologies, Karlsruhe, Germany) containing 10% Fetal Calf Serum (FCS, HyClone, Logan, Utah), 2 mM […], 100 μg/ml penicillin, 100 μg/ml streptomycin (Life Technologies). U937, A549 and HepG2 cells were cultured in RPMI media containing 10% Fetal Calf Serum.
Cells treated in EC-18 and PMA (Phobol 12-myristate 13-acetate) were lysed with cold SDS lysis buffer [(50 mM HEPES, 150 mM NaCl, 0.2 mM EDTA, 0.5% NP-40, 0.1% SDS, 1 mM Na3VO4, 10 mM NaF, and complete Protein Inhibitor Cocktail (Roche)] for 30 minutes on ice. After cell lysis, the aqueous solution was separated from the insoluble precipitate by centrifuging the cell lysates for 30 minutes at 13,000 rpm in a high-speed centrifuge. After protein quantification, the aqueous solution was separated in 10 to 12% SDS-PAGE by electrophoresis. Proteins separated in the gel were transferred into PVDF membrane (Millipore, Billerica, Mass., USA) at 100V for 2 hours. […]

[1] = test system: collagen-induced arthritis in male DBA/1J mouse; test: Arthritis animal model induced by bovine type II collagen; type: in vivo; details: for histopathological arthritis score of knee joint: knee joint of both hind legs, vs negative control (FIG. 6); for histopathological arthritis score of knee joint / concentration of IL-6 in serum: EC-18 125, 500, 2,000 mg/kg oral, Remicade 20 mg/kg i.p., methotrexate 2.5 mg/kg oral; for concentration of IL-6 in serum: serum at day of tissue excision, once a day for five weeks, vs negative control (FIG. 4)
Method: For arthritis animal model experiment, arthritis was induced in male DBA/1J mouse by administering bovine type II collagen to the mouse. Efficacy of EC-18 for treating (or improving) arthritis was evaluated by repeatedly administering EC-18 to the mouse orally. For comparison, Remicade (positive control 1) was administered intraperitoneally and methotrexate (positive control 2) was administered orally. The experiment included seven groups: normal group (G1), negative control (G2), 125 mg/kg, 500 mg/kg and 2,000 mg/kg of EC-18 (EC-18 treatment groups, G3, G4, G5), 20 mg/kg of Remicade (Positive control 1, G6) and 2.5 mg/kg of Methotrexate (Positive control 2, G7). Each group consists of 10 mice. Olive oil was administered to normal group (G1) and negative control group (G2) as an excipient. In all groups, administration was made once a day for five weeks (a total of 35 administrations). Remicade (G6) was administered intraperitoneally, whereas EC-18, methotrexate and olive oil were administered orally in force. For all groups except normal Group (G1), arthritis was induced by immunizing animals twice with bovine type II collagen and complete Freund's adjuvant or incomplete Freund's adjuvant emulsion. During the observation period, common arthritis symptoms were observed once a day, weigh measured once a week, arthritic score evaluation made with the naked eye twice a week, foot thickness measured twice a week.

Molecule	STAT-1 phosphorylation (STAT-1)	histopathological arthritis score of knee joint [1]	concentration of IL-6 in serum [1]	crushing of cartilage and increase of Pannus (stained arthritic tissue) ([1]; EC-18 500 mg/kg oral (G4), Remicade 20 mg/kg i.p. (G6), vs negative control (FIGS. 7 and 8))
CCCCC/C=C\C/C=C\CCCCCCCC(=O)OC(COC(C)=O)COC(=O)CCCCCCCCCCCCCCC (stereo not drawn) [EC-18, 1-palmitoyl-2-linoleoyl-3-acetylglycerol]	does not inhibit	–	–	–
CN(Cc1cnc2nc(N)nc(N)c2n1)c1ccc(C(=O)N[C@@H](CCC(=O)O)C(=O)O)cc1 [Methothrexate, methotrexate]	–	reduced	reduced	–
Remicade: positive control 1, administered intraperitoneally at 20 mg/kg	–	reduced	reduced	reduced
